According to patent publication US20250092353A1, “COMMENSAL FUNGUS AND USES THEREOF” (YEDA RESEARCH AND DEVELOPMENT CO. LTD., priority 2022, published 2025):

Key:
Th17 cells = experiment: RORγt+ Th17 cells in mesenteric and peripheral lymph nodes of colonized mice; format: in vivo; conditions: 5 weeks colonization
From the text: FIGS. 4A-4F include graphs showing humoral and cellular immune responses to C. albicans and Kazachstania sp. (4A) Flow cytometric analysis of myeloid blood cell compartment of mice 4 weeks colonized with C. albicans or K. weizmannii. Neutrophils, classical and non-classical monocytes are defined as Ly6G+CD 115−, Ly6C+CD 115+, and […], respectively. N=8-21 mice, pooled from 3 independent experiments. Gating strategy, left, results, right. (4B) Flow cytometric analysis of humoral anti-fungal reactivity. Gating strategy for the determination of serum immunoglobulin binding to cultured C. albicans or K. weizmannii. (4C) Anti-C. albicans and K. weizmannii IgA and IgG serum reactivity of single-colonized animals, measured as shown in (4B). Note that most but not all animals harbor cross-reactive sera. (4D) Representative gating strategy of RORγt+ T cells (left); percentage of RORγt+ cells among TCRβ CD4+ T cells 5 weeks upon C. albicans or K. weizmannii colonization, n=3-5 mice per group, 3 independent experiments (right). […] EC damage was assessed using the LDH assay as described in (Allert et al., 2018). […]
Methods adhered to published guidelines (Cossarizza et al., 2019). Flow cytometry samples were recorded on BD LSR Fortessa 4 lasers or Cytek Aurora followed by data analysis using the FlowJo software (Treestar).

C. albicans = experiment: In vitro co-culture assay of C. albicans and K. weizmannii; format: cell-based, Candida albicans; conditions: in vitro coculture, flow cytometry
Procedure: (§1) FIGS. 2A-2F include micrographs, graphs, a plot, and a curve showing in vitro culture characteristics of K. weizmannii. (2A) Representative images of C. albicans and K. weizmannii in liquid media in presence of filament-inducing conditions, n=3 independent experiments. (2B) A graph showing largest differences in growth between K. weizmannii and C. albicans with different carbon sources, based on a z-score > or <2. Differences were calculated using the normalized area under the curve (AUC) of K. weizmannii and C. albicans. Normalization of the AUC are based on the growth of both species with glucose. Size of data points corresponds to the normalized AUC of K. weizmannii with the corresponding carbon source. All measurements were done using the Biolog Phenotype MicroArrays in biological triplicates. […] The data points are color-coded according to the different types of carbon sources. (2C) A graph showing the largest differences in growth between K. weizmannii and C. albicans with different nitrogen sources, based on a z-score greater than or less than 2. Differences were calculated using AUC of K. weizmannii and C. albicans and normalized based on the growth of both species with glutamine. […] GFP expressing C. albicans was detected by flowcytometry to discriminate between fungi, n=2 independent experiments.

C2BBe1 cells = experiment: Epithelial cell co-culture cytotoxicity (LDH assay); format: cell-based
Procedure: Quantification of cytotoxicity (LDH assay). Differentiated C2BBe1 cells in 96-well plates were infected for a defined time period with 10^4 C. albicans, S. cerevisiae and K. weizmannii. cells/well. After coincubation, epithelial damage was quantified by measuring LDH release using a cytotoxicity detection kit (Roche) according to the manufacturer's instructions.

[1] = Biolog Phenotype MicroArrays for chemical sensitivity (PM21-PM25); format: cell-based; conditions: compared to C. albicans; normalized AUC of growth
Procedure: as §1

[2] = Fungal-mediated pathology in cortisone 21-acetate immunosuppressed colonized mice; format: in vivo; conditions: cortisone 21-acetate 225 mg/kg s.c. every other day
Procedure: Stably fungal-colonized mice were 5×s.c injected with 225 mg kg-1 with cortisone 21-acetate, following the scheme of injection every other day as described previously (Solis and Filler, 2012). Mice were monitored for weight loss. Following sacrifice, organs and feces were collected for histological examination, flow cytometry and fungal cultivations). If the weight dropped […], mice were sacrificed according to IACUC protocol.
Mice were euthanized and intestines, kidneys and tongue were excised and fixed overnight in 4% paraformaldehyde at 4° C. Paraffin embedding and sectioning was performed by the institutional histology unit. For immunohistochemistry of gut samples, slides were deparaffinized by 2 washes of Xylene followed by 100%, 96%, 70% EtOH and three washes with PBS. Slides were incubated for 30 minutes in 1% hydrogen peroxide in PBS at room temperature in the dark. After washing three times in PBS, slides were boiled for 10 minutes in Citric acid buffer pH 6.0 (10 mM citric acid and 0.05% Tween-20 in DDW), then washed with PBS three times. […] For histopathology of typical tongue or kidney fungal lesions in the mouse model of immunosuppression, paraffin sections were stained with periodic acid-Schiff (PAS) or H&E and slides were captured using a Panoramic SCAN II (3DHISTECH) and analyzed using CaseViewer software (3DHISTECH).

## Kazachstania weizmannii [K. weizmannii]
Th17 cells
  Th17 cell expansion: no Th17 cell expansion was observed
C. albicans
  growth interference in co-culture with C. albicans: grew together without interference
C2BBe1 cells; co-infection with K. weizmannii and C. albicans
  protection from C. albicans-induced EC damage: did not prevent EC damage
C2BBe1 cells; single fungus co-culture
  EC damage / viability (LDH release): did not affect EC viability
[1]
  resistance to chemical inhibitors, azoles: relative resistance to propriconazole and fucinazole
  sensitivity to chemical inhibitors, chlorides and bromides: more sensitive to chlorides and bromides
[2]
  weight loss and fungal spread: neither weight loss nor evidence of fungal spread
